Experimental data: patent US11666565B2, “Treatment of cancer using a SMAD3 inhibitor” (The Chinese University of Hong Kong, priority 2012, dated 2023)

Tests used:
melanoma (B16F10) = details: syngeneic mouse model, N=5
Method: (§1) Therapeutic effect of SIS3 was tested in subcutaneously invasive mouse model of lung carcinoma and melanoma. Lucifase-labeled highly invasive mouse lung carcinoma cells (LLC-luc) and melanoma cells (B16F10-luc) were injected subcutaneously into genetically-identical C57/BL6 mice at a dose of 2 million cells in 200 ul PBS per mouse. Cancer growth, invasion, and metastasis were monitored by measuring tumor size, weight, and bioluminescent imaging weekly. After cancer was established at one week after implantation, tumor-bearing mice received intraperitoneally SIS3 at dosages of 2.5, 5, and 10 ug/Kg body weight daily for 2 weeks. Control animals received daily saline, instead of SIS3, and a group of tumor-bearing mice without any treatment (used as untreated controls) were also monitored. Five mice per group were used in this study. Mice were weighed and tumor size or metastasis was examined by live bioluminescent imaging weekly. The survival rate was recorded. All mice were euthanized 2 weeks after treatment for further examination by histology and tumor volume and weight, invasion, and metastasis.

lung carcinoma (LLC) = system: lung carcinoma (LLC)
Method: as §1

## COc1cc2c(cc1OC)CN(C(=O)/C=C/c1c(-c3ccccc3)n(C)c3ncccc13)CC2 [SIS3, (6,7-Dimethoxy-2-((2E)-3-(1-methyl-2-phenyl-1H-pyrrolo[2,3-b]pyridin-3-yl-prop-2-enoyl))-1,2,3,4-tetrahydroisoquinoline)]
Melanoma (B16F10); subcutaneous melanoma B16F10, 3 million cells/mouse, FIG. 4
  cancer weight: markedly lowering the cancer weight
Melanoma (B16F10); SIS3 intraperitoneally daily, 2.5, 5 and 10 ug/Kg body weight, FIG. 3
  melanoma (B16F10) growth by live imaging analysis: inhibits melanoma (B16F10) growth in a dosage-dependent manner
Lung carcinoma (LLC); after 10 days treatment with SIS3 at doses of 5-10 μg/g body weight, N=5, FIG. 6
  detectability of cancers: most of cancers become undetectable
Lung carcinoma (LLC); lung carcinoma (LLC) mouse model, FIGS. 3-7
  invasion into the cancer surrounding tissues and metastasis to lymph nodes, lung, liver, gastric and colon tissue: suppressed
Lung carcinoma (LLC); subcutaneous LLC, 2 million cells/mouse, syngeneic mouse model, N=5, FIG. 7A
  cancer growth as demonstrated by tumor weight: prevents cancer growth
